Reference: US5202417A, “60-amino-acid polypeptide” (Takeda Chemical Industries, Ltd., priority 1989, dated 1993)

Assays:
[1] = tested on: IgG fraction containing anti-hEGF antibody; assay: enzyme immuno assay (EIA) for human EGF, plate sensitized with IgG fraction containing anti-hEGF antibody; type: binding, rabbit; details: culture solutions of MCF7, MKN-45 and KATO-III; different from EGF
From the text: In order to examine the relationship between the MCF7 cells thus secreting various growth factors and epidermal growth factor (hereinafter referred to as EGF) which is a kind of growth factor, we established an enzyme immuno assay (hereinafter referred to as EIA) which can assay human EGF, and tried to determine it in the culture solutions of MCF7 and human gastric cancer cells MKN-45 and KATO-III. […] It is conceivable that this substance was detected because another antibody was present in the enzyme immuno assay in addition to an antibody against EGF.
An assay system used for detecting the polypeptide of the present invention was prepared in the following manner.
200 μg/ml of an IgG fraction (purified from rabbit serum) containing anti-hEGF antibody was added to 50 mM of Tris-HCl (pH 8.0), and the mixture was poured to a microplate having 96 wells (Sumitomo Bakelite Co.) in an amount of 100 μl/well. After the reaction was conducted at 37° C. for 3 hours, the solution was discarded. Buffer A was further added thereto and blocking was carried out. […]
A plate was washed once with 200 μl/well of buffer A just prior to the use thereof. […] The resultant product was transferred to a Dynamic™ microfluor (for fluorescent enhancer), and the fluorescence was measured with an immunoreader (365 nm excitation, 415 nm fluorescence measurement). […]

anti-PS2 antibodies = assay: immunoreactivity to anti-PS2 antibodies; type: binding
[2] = isoelectric point of the purified polypeptide; type: physicochemical

Question: For “immunoreactive polypeptide: 60-amino-acid polypeptide, N-terminus EAQ, secreted by cancer cells MCF-7, MKN-45 or KATO-III; part of the PS2 precursor protein (EAQTETCTVAPRERQNCGFPGVTPSQCANKGCCFDDTVRGVPWCFYPNTIDVPPEEECEF; UniProt P04155 25-84, looked up)”, which “immunoreactivity in the EIA” value [1] is on record?
Answer: immunoreactive to the EIA

Question: What about the “immunoreactivity to anti-PS2 antibodies” value (anti-PS2 antibodies) of the same substance?
Answer: immunoreactive to anti-PS2 antibodies

Question: What about the isoelectric point [2] of the same substance?
Answer: 4.3
